The results in this text go back to the Kinase Knowledgebase extract (Sharma et al. 2016).

As usually defined, the IC50 is the point on the concentration scale where inhibition reaches its midpoint.

Chain of EGFR (P00533 whole entry, looked up): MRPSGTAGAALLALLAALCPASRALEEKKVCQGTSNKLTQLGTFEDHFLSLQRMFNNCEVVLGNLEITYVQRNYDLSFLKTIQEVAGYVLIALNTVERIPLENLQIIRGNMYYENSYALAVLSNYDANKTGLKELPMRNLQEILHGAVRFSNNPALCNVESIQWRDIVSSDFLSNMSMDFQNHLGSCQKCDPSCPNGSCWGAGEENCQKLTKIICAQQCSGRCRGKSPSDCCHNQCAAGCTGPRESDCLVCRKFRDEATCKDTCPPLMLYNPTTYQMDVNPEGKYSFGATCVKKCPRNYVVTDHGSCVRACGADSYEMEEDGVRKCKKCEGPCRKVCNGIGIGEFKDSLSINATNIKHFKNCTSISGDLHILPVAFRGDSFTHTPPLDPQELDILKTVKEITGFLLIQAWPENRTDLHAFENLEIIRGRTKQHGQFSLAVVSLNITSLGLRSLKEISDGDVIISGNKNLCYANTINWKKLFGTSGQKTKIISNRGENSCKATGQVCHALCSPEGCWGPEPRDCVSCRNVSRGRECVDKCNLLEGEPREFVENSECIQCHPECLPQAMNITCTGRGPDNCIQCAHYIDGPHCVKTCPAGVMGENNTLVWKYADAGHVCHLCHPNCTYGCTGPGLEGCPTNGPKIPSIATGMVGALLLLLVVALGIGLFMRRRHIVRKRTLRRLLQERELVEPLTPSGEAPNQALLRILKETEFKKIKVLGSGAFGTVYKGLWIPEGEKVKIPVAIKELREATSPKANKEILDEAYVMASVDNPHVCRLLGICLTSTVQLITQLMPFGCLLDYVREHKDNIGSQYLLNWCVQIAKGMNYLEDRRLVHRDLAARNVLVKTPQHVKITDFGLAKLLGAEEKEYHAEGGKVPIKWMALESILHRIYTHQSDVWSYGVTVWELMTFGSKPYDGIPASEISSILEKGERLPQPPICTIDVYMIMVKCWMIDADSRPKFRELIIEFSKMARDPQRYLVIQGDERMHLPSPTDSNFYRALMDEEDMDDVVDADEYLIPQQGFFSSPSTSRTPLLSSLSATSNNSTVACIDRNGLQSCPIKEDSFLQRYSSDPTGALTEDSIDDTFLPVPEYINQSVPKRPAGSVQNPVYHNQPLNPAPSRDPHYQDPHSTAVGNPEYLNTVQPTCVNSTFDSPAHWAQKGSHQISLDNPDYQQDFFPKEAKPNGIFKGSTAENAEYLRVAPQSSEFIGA

For the first experiment, the target named is EGFR, P00533 [L861Q].
Chain of EGFR, P00533 [L861Q] (P00533 whole entry L861Q, looked up): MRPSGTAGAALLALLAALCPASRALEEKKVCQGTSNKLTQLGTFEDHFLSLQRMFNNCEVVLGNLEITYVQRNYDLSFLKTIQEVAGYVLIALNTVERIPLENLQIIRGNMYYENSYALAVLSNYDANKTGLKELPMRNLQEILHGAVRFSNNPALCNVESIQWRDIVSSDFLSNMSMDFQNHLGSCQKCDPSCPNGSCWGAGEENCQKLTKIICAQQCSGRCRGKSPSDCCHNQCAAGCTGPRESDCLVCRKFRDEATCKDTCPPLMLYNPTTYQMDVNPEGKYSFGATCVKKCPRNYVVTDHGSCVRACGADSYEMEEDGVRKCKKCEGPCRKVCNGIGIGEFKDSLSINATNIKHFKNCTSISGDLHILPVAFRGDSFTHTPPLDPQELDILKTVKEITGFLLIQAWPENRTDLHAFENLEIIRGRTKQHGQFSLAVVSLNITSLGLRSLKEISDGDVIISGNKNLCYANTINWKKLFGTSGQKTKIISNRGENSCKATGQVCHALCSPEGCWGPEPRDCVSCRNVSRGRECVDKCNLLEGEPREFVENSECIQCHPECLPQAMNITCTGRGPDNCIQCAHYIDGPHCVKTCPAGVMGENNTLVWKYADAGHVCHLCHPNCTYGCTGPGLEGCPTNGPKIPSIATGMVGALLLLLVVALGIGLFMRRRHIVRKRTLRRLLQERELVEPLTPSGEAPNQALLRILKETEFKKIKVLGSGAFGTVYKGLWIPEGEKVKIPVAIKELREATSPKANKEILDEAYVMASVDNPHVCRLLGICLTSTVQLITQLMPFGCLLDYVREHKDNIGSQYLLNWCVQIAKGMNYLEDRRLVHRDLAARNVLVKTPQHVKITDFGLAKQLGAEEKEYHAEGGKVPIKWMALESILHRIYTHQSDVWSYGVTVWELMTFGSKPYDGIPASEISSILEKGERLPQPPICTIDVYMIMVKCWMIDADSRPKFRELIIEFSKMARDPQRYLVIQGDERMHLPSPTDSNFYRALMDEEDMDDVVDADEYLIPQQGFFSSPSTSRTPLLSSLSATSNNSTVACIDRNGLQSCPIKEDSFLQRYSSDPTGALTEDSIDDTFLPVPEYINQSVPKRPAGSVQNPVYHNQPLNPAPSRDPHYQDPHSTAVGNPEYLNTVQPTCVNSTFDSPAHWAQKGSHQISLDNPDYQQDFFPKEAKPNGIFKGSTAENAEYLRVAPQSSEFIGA
In turn, `O=C(Nc1cccc(Nc2cc(Nc3cccc(C(F)(F)F)c3)ncn2)c1)C1CC1` yielded an IC50 of 4 nM.

Another experiment deals with EGFR, P00533 [L858R].
Chain of EGFR, P00533 [L858R] (P00533 whole entry L858R, looked up): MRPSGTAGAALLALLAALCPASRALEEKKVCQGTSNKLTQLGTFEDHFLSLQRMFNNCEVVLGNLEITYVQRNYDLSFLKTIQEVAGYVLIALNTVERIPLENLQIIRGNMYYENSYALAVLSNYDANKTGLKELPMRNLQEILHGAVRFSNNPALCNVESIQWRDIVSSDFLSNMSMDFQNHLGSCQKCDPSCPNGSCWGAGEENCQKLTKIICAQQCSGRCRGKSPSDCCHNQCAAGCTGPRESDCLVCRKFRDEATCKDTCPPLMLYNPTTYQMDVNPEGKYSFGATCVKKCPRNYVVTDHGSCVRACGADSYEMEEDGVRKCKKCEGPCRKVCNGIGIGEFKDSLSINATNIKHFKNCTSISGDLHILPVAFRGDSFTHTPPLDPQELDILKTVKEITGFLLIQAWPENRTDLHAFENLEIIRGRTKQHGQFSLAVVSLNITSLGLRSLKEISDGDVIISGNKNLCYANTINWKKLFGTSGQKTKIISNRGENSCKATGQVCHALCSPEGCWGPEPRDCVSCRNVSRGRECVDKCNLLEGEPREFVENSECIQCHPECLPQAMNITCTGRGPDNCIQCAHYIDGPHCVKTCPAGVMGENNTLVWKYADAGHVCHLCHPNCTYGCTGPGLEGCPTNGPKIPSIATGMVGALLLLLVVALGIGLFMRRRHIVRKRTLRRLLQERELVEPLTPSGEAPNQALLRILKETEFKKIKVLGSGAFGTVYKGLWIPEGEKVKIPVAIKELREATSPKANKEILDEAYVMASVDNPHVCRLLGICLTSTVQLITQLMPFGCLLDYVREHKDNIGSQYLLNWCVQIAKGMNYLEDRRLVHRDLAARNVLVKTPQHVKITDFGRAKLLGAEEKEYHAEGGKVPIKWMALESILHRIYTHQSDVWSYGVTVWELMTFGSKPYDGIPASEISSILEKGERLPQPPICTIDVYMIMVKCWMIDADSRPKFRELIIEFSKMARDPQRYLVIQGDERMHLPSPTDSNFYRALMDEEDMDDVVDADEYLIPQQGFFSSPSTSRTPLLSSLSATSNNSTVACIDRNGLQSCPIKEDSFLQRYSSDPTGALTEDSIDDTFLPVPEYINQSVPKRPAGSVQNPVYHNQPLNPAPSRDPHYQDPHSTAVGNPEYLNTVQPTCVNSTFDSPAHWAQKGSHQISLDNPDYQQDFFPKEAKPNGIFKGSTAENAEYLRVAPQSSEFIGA
Compound `O=C(Nc1cccc(Nc2cc(Nc3cccc(C(F)(F)F)c3)ncn2)c1)C1CC1` returned an IC50 of 63 nM.

The next experiment addresses EGFR (UniProt P00533).
As for `O=C(Nc1cccc(Nc2cc(NCc3ccc(C(F)(F)F)cc3)ncn2)c1)C1CC1`, the IC50 came to 1760 nM. `O=C(Nc1cccc(Nc2ccnc(Nc3cccc(C(F)(F)F)c3)n2)c1)C1CC1` returned an IC50 of more than 10000 nM. `O=C(Nc1cccc(Nc2nccc(Nc3cccc(C(F)(F)F)c3)n2)c1)C1CC1`: the IC50 was more than 10000 nM. As for `FC(F)(F)c1cccc(Nc2cc(Nc3cccc(C(F)(F)F)c3)ncn2)c1`, the IC50 worked out at 32 nM. Still for that read-out and setting: in the case of `Cc1ccccc1Nc1cc(Nc2cccc(NC(=O)C3CC3)c2)ncn1` it was 7 nM; in that of `FC(F)(F)c1cccc(Nc2ccnc(Nc3cccc(C(F)(F)F)c3)c2)c1`, more than 10000 nM; in that of `CN(c1cccc(C(F)(F)F)c1)c1cc(Nc2cccc(NC(=O)C3CC3)c2)ncn1`, 19 nM. Compound `O=C(Nc1cccc(Nc2cc(Nc3cccc(C(F)(F)F)c3)ncn2)c1)C1CC1` registered an IC50 of 21 nM. In the case of `CN(c1cccc(NC(=O)C2CC2)c1)c1cc(Nc2cccc(C(F)(F)F)c2)ncn1`, the 50% inhibitory concentration (IC50) is more than 10000 nM. Regarding `O=C(Nc1cccc(Nc2cc(Oc3cccc(C(F)(F)F)c3)ncn2)c1)C1CC1`, the concentration for half-maximal inhibition (IC50) worked out at 14 nM. Take `FC(F)(F)c1cccc(Oc2cc(Oc3cccc(C(F)(F)F)c3)ncn2)c1`: the 50% inhibitory concentration (IC50) was more than 10000 nM. `COc1ccc(OC)c(-c2cc(Nc3cccc(NC(=O)C4CC4)c3)ncn2)c1` displayed an IC50 of more than 10000 nM.

In the case of `COc1ccc(Nc2cc(Nc3cccc(C(F)(F)F)c3)ncn2)cc1NC(=O)C1CC1`, the IC50 was determined as 120 nM. The same measure, in the same setting: to `O=C(Nc1cccc(Nc2cc(Nc3ccccc3Cl)ncn2)c1)C1CC1` belongs 35 nM; to `COc1ccc(Nc2cc(Nc3cccc(C(F)(F)F)c3)ncn2)cc1NC(=O)C1CCCCC1`, 3600 nM; to `COc1ccc(Cl)cc1-c1cc(Nc2cccc(NC(=O)C3CC3)c2)ncn1`, more than 10000 nM.
